Test results as given in US20060210611A1, “Fat soluble vitamin feed supplements and processes for delivering same” (priority 2003, published 2006).
Read-outs that look alike come from different tables or passages of the source.

Assays:
[1] = per 1 mg; cited from earlier work
[2] = Dietary vitamin E regimens and final longissimus muscle α-tocopherol (AT) concentration (Arnold); format: in vivo, cattle
Procedure: For example, Arnold compared several dietary vitamin E regimens and their resultant final tissue concentration of α-tocopherol (AT). Comparing the results to baseline control and assuming AT accretion in longissimus muscle is linear over time, approximate rates of AT accretion are calculated for various E regimens. Because AT rise is likely logarithmic (See e.g., Arnold et al., J. Anim. Sci. 71:105-118. (1993)), these calculated rates are conservative estimates, especially for feeding periods exceeding 150 days.

[3] = AT accretion in RCDM neck muscle at 1,000 IU vitamin E/hd/day (McClure); format: in vivo, Bos indicus crosses; conditions: 1000 IU/hd/day (McClure), 25-125 days fed
Procedure: McClure (FIG. 1) tested the rate of accretion in Bos indicus crosses when fed 1,000 IU of Vitamin E/hd/day. Groups of cattle were slaughtered at 25-day intervals, and neck muscles obtained for tissue AT analysis. Because the controls were already receiving 200 IU E/day, initial AT concentrations were above 3.5. However, RCDM (rectus capitis dorsalis major) AT concentration rose in a logarithmic fashion, eventually reaching a plateau of 9.3 μg/gm. (McClure et al., Determination of Appropriate Vitamin E Supplementation Levels and Administration Times to Ensure Adequate Muscle Tissue Alpha-Tocopherol Concentrations in Cattle Destined for the Nolan Ryan Tender-Aged Beef (NRTAAB) Program, Animal Sciences Report (2002)).

[4] = Calculated average AT accretion rates in longissimus muscle (Arnold and McClure combined); format: in vivo, cattle
Description: Combining the results from Arnold and McClure, and bearing in mind that various muscles accrete AT at different rates (sirloin>inside round>RCDM>strip loin; Roeber et al., Effects of Three Levels of α-Tocopherol Acetate Supplementation to Feedlot Cattle on Performance of Beef Cuts (2001)), average accretion rates for AT in longissimus muscle can be calculated: […]

[5] = cited from earlier work
[6] = cited from earlier work; remark: listed apart in the source
[7] = 360 IU/hd/day, 211-252 days fed
[8] = 1280 IU/hd/day, 211-252 days fed
[9] = 2080 IU/hd/day, 196-266 days fed
[10] = 3520 IU/hd/day, 196-266 days fed

CC(=O)Oc1c(C)c(C)c2c(c1C)CCC(C)(CCCC(C)CCCC(C)CCCC(C)C)O2 (racemic) [all-rac-α-tocopherol acetate]
specific activity [1]: 1.00 IU per milligram

Cc1c(C)c2c(c(C)c1O)CCC(C)(CCCC(C)CCCC(C)CCCC(C)C)O2 (racemic) [all-rac-α-tocopherol]
specific activity [1]: 1.10 IU per milligram

CC(=O)Oc1c(C)c(C)c2c(c1C)CC[C@@](C)(CCC[C@H](C)CCC[C@H](C)CCCC(C)C)O2 [RRR-α-tocopherol acetate]
specific activity [1]: 1.36 IU per milligram

Cc1c(C)c2c(c(C)c1O)CC[C@@](C)(CCC[C@H](C)CCC[C@H](C)CCCC(C)C)O2 [RRR-α-tocopherol]
specific activity [1]: 1.49 IU per milligram

Vitamin E
Calculated Rise in AT per 50 days ([2]; 300 IU/hd/day, 231-309 days fed, vs control baseline, linear accretion assumed): 0.52 μg/gm/50 days | Calculated Rise in AT per 50 days [2, 7]: 0.64 μg/gm/50 days | Calculated Rise in AT per 50 days ([2]; 1140 IU/hd/day, 67 days fed): 3.58 μg/gm/50 days | Calculated Rise in AT per 50 days ([2]; 1200 IU/hd/day, 38 days fed): 2.76 μg/gm/50 days | Calculated Rise in AT per 50 days [2, 8]: 1.28 μg/gm/50 days | Calculated Rise in AT per 50 days [2, 9]: 1.38 μg/gm/50 days | Calculated Rise in AT per 50 days [2, 10]: 1.58 μg/gm/50 days | Calculated Rise in AT per 50 days [3]: 2.6 μg/gm/50 days | AT Accretion ([4]; Vitamin E dose 500 IU/hd/day): 0.75-1.0 μg AT/gm wet muscle/50 days | AT Accretion ([4]; Vitamin E dose 1000+ IU/hd/day): 1.5-3.6 μg AT/gm wet muscle/50 days | AT Accretion ([4]; Vitamin E dose less than 500 IU/hd/day): 0.5-0.6 μg AT/gm wet muscle/50 days | Final Longissimus AT concentration ([5]; 300 IU/hd/day, 231-309 days fed): 3.8 μg/gm wet muscle | Final Longissimus AT concentration [5, 7]: 4.1 μg/gm wet muscle | Final Longissimus AT concentration ([5]; 1140 IU/hd/day, 67 days fed): 6.2 μg/gm wet muscle | Final Longissimus AT concentration ([5]; 1200 IU/hd/day, 38 days fed): 3.5 μg/gm wet muscle | Final Longissimus AT concentration [5, 8]: 6.8 μg/gm wet muscle | Final Longissimus AT concentration [5, 9]: 6.8 μg/gm wet muscle | Final Longissimus AT concentration [5, 10]: 7.6 μg/gm wet muscle | RCDM AT concentration plateau ([6]; 1,000 IU of Vitamin E/hd/day, slaughter at 25-day intervals): 9.3 μg/gm | Final AT concentration (in RCDM muscle) ([6]; 1000 IU/hd/day (McClure), 25-125 days fed): 9.3 μg/gm wet muscle | initial AT concentrations ([6]; controls already receiving 200 IU E/day): above 3.5
